Legend:
[1] = tested on: androgenetic alopecia model in C57BL/6J mice; assay: Hair regeneration effects on androgenic alopecia C57 mouse model (DHT-induced); type: in vivo, C57BL/6N mice; conditions: AVER n = 6, score 0-5
Text: Activity Assay Example 8: Hair Regeneration Effects of Compounds on Androgenic Alopecia C57 Mouse Model
The purpose of this study was to compare the effect of the compounds prepared by the present invention as AR protein degraders on hair regrowth in an androgenetic alopecia model in C57BL/6J mice by transdermal application route of administration, and to provide data to support subsequent clinical trials.
2. Experimental Principle
Name of test compound I: dihydrotestosterone DHT; name of test compound II: compound A46 of the present invention; name of test compound III: minoxidil.
4. Experimental animals: strain: C57BL/6N mice; age: 6-7 weeks; gender: male; number of animals: 70 (10 for later use); rearing environment: specific pathogen-free (SPF).
70 mice were deeply anesthetized, and the hair on the back of the mice was removed with an animal shaver, then the depilatory cream (Veet https://item.jd.com/6291245.html) was smeared evenly on the surface of the mice skin, and left 7-10 minutes. Then the hair was gently scraped off with a hair removal scraper against the direction of the hair, and finally the residual hair removal cream on the skin surface was fully washed with water to avoid burning the mice skin.
This experiment was divided into 6 groups, and the DHT administration started on the day of hair removal, A46 is administered on day 2 after hair removal and is counted as day 1 (the day of hair removal is counted as day 0).
5.3 Test Compound Preparation Method
5.4 Observation and Measurement Indicators • 1) Body weight/g: From the first day of administration, body weight was weighed and recorded twice a week. • 2) Hair regeneration (anagen) score (0 points: no darkening of skin color in all areas; 1 point: darkening of gray skin color areas; 2 points: visible short hair; 3 points: thin hair; 4 points: thick hair; 5 points: full hair growth).
All mice were photographed on day 1 after hair removal, and then photographed and scored daily from day 4 until the end of the experiment. • 3) At the end of the experiment, skin and blood collection operations were performed as needed. 5.5 Criteria for Drug Withdrawal and Experiment Termination
Data are presented as average±standard error (AVE±SEM). One-way multi-level analysis of variance was used for statistics. The comparison between each drug group and the model group was performed by Stundent's t-test or rank sum test, and the p value was calculated. p<0.05 means there is a significant difference between the two groups, p<0.01 means there is a extremely significant difference between the two groups.

[2] = Distribution of compounds in sebaceous glands and blood in golden hamsters; type: in vivo; conditions: for mean drug concentration in sebaceous glands: after 8 h
Description: Activity Assay Example 9: Distribution of Compounds in Sebaceous Glands and Blood in Golden Hamsters
6 male golden hamsters were selected for the experiment and divided into two groups (three in each group). The drug was administered by a single smear route. All animals fasted overnight before administration.
1.1 Experimental Method 1.1.1 Dosage of Administration
A46 was weighed into a 50 ml centrifuge tube, added with mixed solvent (75% ethanol, 15% glyceryl tri(2-ethylhexanoate) and 10% glycerol), vortexed and heated at 60° C. until A46 was completely dissolved. A46 was prepared at a concentration of 30 mg/mL, 100 mg/mL, and stored at room temperature in the dark.
In group 1, the dosage for smear administration was 1.2 mg, corresponding to an administration volume of 30 mL/kg. In group 2, the dosage for smear administration was 4 mg, and the administration volume was 100 mL/kg.
1.1.2 Method of Administration
During the experiment, the 2 sebaceous glands of all the hamsters were coated with the corresponding medicinal solution (the dosage was about 0.02 mL).
1.1.3 Observation of Animal Status
Immediately after administration, whether the animals have abnormal reactions was observed. If there were no abnormal reactions, the animals were observed twice during the experiment. If any abnormal reactions were found, the number of observations was recorded and increased in time until the animals returned to normal, or the experiment ended.
1.1.4 Sample Collection and Storage
All experimental animals were fasted overnight before administration, and blood was collected at corresponding time points into blood collection tubes containing heparin sodium anticoagulant after administration. After collection of whole blood, the blood collection tube was immediately shook gently and placed on ice, then centrifuged (4° C., 4000 rpm, 10 min) to collect the supernatant plasma sample (plasma volume ≥100 μL), and the supernatant plasma sample was stored at −80° C. before analysis. Plasma sample was collected for 8 h.

**Q.** Which Hair regeneration score ([1]; 0.5% skin smear BID + DHT 30 mpk, 0 day) does the source give for `Cc1ncsc1-c1ccc(CNC(=O)[C@@H]2C[C@@H](O)CN2C(=O)[C@@H](NC(=O)COCCCCOc2ccc(-c3ccc(N4C(=S)N(c5ccc(C#N)c(C(F)(F)F)c5F)C(=O)C4(C)C)cn3)cc2)C(C)(C)C)cc1` [Compound A46] here?
**A.** The Hair regeneration score was 0.00.

**Q.** And the Hair regeneration score ([1]; 0.5% skin smear BID + DHT 30 mpk, 3 days)?
**A.** The Hair regeneration score was 0.00.

**Q.** And the Hair regeneration score ([1]; 0.5% skin smear BID + DHT 30 mpk, 5 days)?
**A.** The Hair regeneration score was 0.00.

**Q.** And the Hair regeneration score ([1]; 0.5% skin smear BID + DHT 30 mpk, 7 days)?
**A.** Its Hair regeneration score is 0.00.

**Q.** And the Hair regeneration score ([1]; 0.5% skin smear BID + DHT 30 mpk, 10 days)?
**A.** Its Hair regeneration score is 0.33.

**Q.** And the Hair regeneration score ([1]; 0.5% skin smear BID + DHT 30 mpk, 12 days)?
**A.** The Hair regeneration score was 0.50.

**Q.** And the Hair regeneration score ([1]; 0.5% skin smear BID + DHT 30 mpk, 14 days)?
**A.** Its Hair regeneration score is 1.00.

**Q.** And the Hair regeneration score ([1]; 0.5% skin smear BID + DHT 30 mpk, 17 days)?
**A.** Its Hair regeneration score is 1.67.

**Q.** And the Hair regeneration score ([1]; 1% skin smear BID + DHT 30 mpk, 0 day)?
**A.** The Hair regeneration score was 0.00.

**Q.** And the Hair regeneration score ([1]; 1% skin smear BID + DHT 30 mpk, 3 days)?
**A.** Its Hair regeneration score is 0.00.

**Q.** And the Hair regeneration score ([1]; 1% skin smear BID + DHT 30 mpk, 5 days)?
**A.** The Hair regeneration score was 0.00.

**Q.** And the Hair regeneration score ([1]; 1% skin smear BID + DHT 30 mpk, 7 days)?
**A.** Its Hair regeneration score is 0.00.

**Q.** What about the Hair regeneration score ([1]; 1% skin smear BID + DHT 30 mpk, 10 days) of the same compound?
**A.** Its Hair regeneration score is 0.33.

**Q.** What about the Hair regeneration score ([1]; 1% skin smear BID + DHT 30 mpk, 12 days) of the same compound?
**A.** The Hair regeneration score was 0.83.

**Q.** And the Hair regeneration score ([1]; 1% skin smear BID + DHT 30 mpk, 14 days)?
**A.** Its Hair regeneration score is 1.50.

**Q.** What about the Hair regeneration score ([1]; 1% skin smear BID + DHT 30 mpk, 17 days) of the same compound?
**A.** Its Hair regeneration score is 2.00.

**Q.** What about the Hair regeneration score ([1]; 3% skin smear BID + DHT 30 mpk, 0 day) of the same compound?
**A.** Its Hair regeneration score is 0.00.

**Q.** And the Hair regeneration score ([1]; 3% skin smear BID + DHT 30 mpk, 3 days)?
**A.** Its Hair regeneration score is 0.00.

**Q.** And the Hair regeneration score ([1]; 3% skin smear BID + DHT 30 mpk, 5 days)?
**A.** Its Hair regeneration score is 0.00.

**Q.** What about the Hair regeneration score ([1]; 3% skin smear BID + DHT 30 mpk, 7 days) of the same compound?
**A.** Its Hair regeneration score is 0.00.

**Q.** And the Hair regeneration score ([1]; 3% skin smear BID + DHT 30 mpk, 10 days)?
**A.** Its Hair regeneration score is 0.50.

**Q.** What about the Hair regeneration score ([1]; 3% skin smear BID + DHT 30 mpk, 12 days) of the same compound?
**A.** Its Hair regeneration score is 1.17.

**Q.** What about the Hair regeneration score ([1]; 3% skin smear BID + DHT 30 mpk, 14 days) of the same compound?
**A.** The Hair regeneration score was 1.83.

**Q.** What about the Hair regeneration score ([1]; 3% skin smear BID + DHT 30 mpk, 17 days) of the same compound?
**A.** The Hair regeneration score was 2.83.

**Q.** What about the “mean drug concentration in sebaceous glands” value ([2]; group 1, single smear 1.2 mg (30 mg/mL)) of the same compound?
**A.** Its value is 13513 ng/mL.

**Q.** What about the “mean drug concentration in sebaceous glands” value ([2]; group 2, single smear 4 mg (100 mg/mL)) of the same compound?
**A.** Its value is 24223 ng/mL.

**Q.** And the maximum blood concentration ([2]; group 2, single smear 4 mg (100 mg/mL), one out of 3 animals, sampling 0.25-8 h)?
**A.** Its maximum blood concentration is 10.6 ng/mL.

**Q.** What about the “blood concentration (below the detection limit)” value ([2]; group 2, single smear 4 mg (100 mg/mL), remaining 2 animals, sampling 0.25-8 h) of the same compound?
**A.** The value was less than 2 ng/mL.
